# Results: US8965708B2, “Method for the treatment of acquired lymphedema” (The Board of Trustees of the Leland Stanford Junior …, priority 2006, dated 2015)
# Entries after “also recorded” stand apart in the source; their conditions may differ.
# Tests used:
# [1] = Log Kow; type: physicochemical
# [2] = Permeation through the stratum corneum of human cadaver skin; type: in vitro ADME; conditions: cumulative permeation over time, FIG. 33
# Description: FIG. 33. Ketoprofen chemistry. (A) Chemical formula of ketoprofen. (B) Ester modification to improve bioavailability. […] Closed triangles: Methyl ester. Open circles: ethyl ester. Open squares: isopropyl ester. x axis=time in hours.
# [3] = test system: tail lymphedema in SKH-1 mice; assay: Histology and histomorphometric quantitation of epidermal thickness (Example 4); type: in vivo, mouse; conditions: for histological changes in mice with lymphedema: hematoxylin/eosin
# Description: Immediately after sacrifice, 0.5-g sections of tail were harvested for histological analysis and RNA extraction. Sections extended from a point 4 mm proximal to the surgical incision to 8 mm beyond it. The specimens were fixed overnight in 4% paraformaldehyde, embedded in paraffin, cut into 5-μm sections, stained with hematoxylin and eosin (Richard-Allan Scientific, Kalamazoo, Mich.), and examined by light microscopy.
# Epidermal thickness was measured serially using digital images of histology slides stained with hematoxylin and eosin. Processing and analysis were performed using Adobe Photoshop CS4 and ImageJ (http://rsbweb.nih.gov/ij) as previously described with modifications (Sanders J E, et al. Comput Methods Programs Biomed. 1999; 59:167-180). Quantitative measurements were imported to Prism 5 software (GraphPad Software Inc., La Jolla, Calif.) for statistical analysis and graphing.
# [4] = test system: tail lymphedema in SKH-1 mice; assay: Tail volume quantitation, NSAID / sTNF-R1 treatment (Example 4); type: in vivo, mouse
# Description: Tail lymphedema was induced in female hairless, immunocompetent SKH-1 mice (Charles River Laboratories, Boston, Mass.) as described. The mice were anesthetized with a solution of ketamine, xylazine, and saline (0.07 ml i.p.). The skin of the tail was circumferentially incised 16 mm distal to its base. The major lymphatic trunks were identified by subcutaneous injection of methylene blue distal to the incision and ablated by limited cautery. The mice were carefully monitored for any visceral signs of distress. Sham surgery controls were treated identically, but without lymphatic cautery. […] All mice were sacrificed in accordance with American Veterinary Medical Association guidelines for rodent euthanasia after day 11 days of observation. After sacrifice, 500 mg sections of the tail were harvested for paraffin embedding and RNA extraction. For all in vivo experiments, housing, husbandry and experimentation were in strict accordance with the Animal Welfare Act and the Guide for the Care and Use of Laboratory Animals.
# Sham surgery and normal controls were treated identically with the NSAID (n=8 per group), sTNF-R1 (n=11 per group), or PBS (n=11 normal controls, n=8 sham surgery controls).
# Tail volume was measured serially in each mouse, using a digital photographic application of the truncated cone approximation as described.
# [5] = test system: TNF-α, MCP-1, VEGF-C, VEGF-D, VEGFR-3, Prox1, LYVE-1 expression; assay: Targeted gene expression analysis by quantitative real-time RT-PCR in tail skin; type: in vivo, mouse
# Description: Primers and probes were from Assays-on-Demand (Applied Biosystems, Foster City, Calif.). cDNA was synthesized from 5 μg of total RNA with Taqman reverse-transcription reagents (Applied Biosystems) and amplified in triplicate at 50° C. for 2 minutes and 95° C. for 10 minutes, followed by 40 cycles of 95° C. for 15 seconds and 60° C. for 1 minute. Reactions without template and/or enzyme were used as negative controls. 18S ribosomal RNA served as an internal control. A standard curve derived from embryonic mouse RNA was plotted for each target gene by linear regression using SPSS software (v. 11.0, Applied Biosystems). RNA quantity was expressed relative to the corresponding 18S control. Fold differences were calculated by dividing the experimental results by the pooled normal results and were plotted on a log 10 scale.
# [6] = test system: cytokine levels in tail skin; assay: Tissue cytokine assays (Luminex) in tail skin homogenates; type: in vivo, mouse
# Description: Cytokine levels in tail skin were measured in normal controls and mice with untreated, NSAID-treated, and sTNF-R1-treated lymphedema (n=3 per group) sacrificed on postoperative day 7. The Luminex LabMap200 System was used to measure the levels of 42 cytokines from the supernatant of tissue homogenates. Multiplex cytokine kits were purchased from Panomics (Fremont, Calif.), and the assay was performed according to the manufacturer's recommendation with the following modifications: 25-50 μl of samples, standards, and controls were added in duplicate to 96-well filter plates pre-configured with a panel of anti-cytokine antibodies covalently linked to unique polystyrene beads. The plate was incubated overnight at 4° C. in the dark with shaking at 500 rpm, vacuum aspirated, and washed three times with 140 μl of wash buffer to remove unbound antigen. Biotinylated detection antibody solution (25 μl) was added to each well and incubated for 1 hour with shaking at 500 rpm at room temperature. The plate was incubated with 50 μl of streptavidin-phycoerythrin for 35 minutes and then with 120 μl of reading buffer for 3 minutes at room temperature with shaking. After laser excitation, digital images of the bead array were captured with a CCD camera and analyzed on a computer workstation with BeadView software.
# [7] = test system: post-surgical lymphedema in the tails of SKH-1 mice; assay: Histology of tail sections (H&E), VEGF-C study; type: in vivo, mouse; conditions: day 11
# Description: For histological evaluation, 11 mice were sacrificed on Day 11 of observation. Immediately following sacrifice, 0.5 gm sections of the tail were harvested. Sections extended from a point 4 mm proximal to the surgical incision to 8 mm beyond it. The specimens were fixed overnight in 4% paraformaldehyde. After paraffin embedding, 5 μm sections were stained with hematoxylin and eosin (H&E, Richard-Allan Scientific). After deparaffinization in xylene, sections were rehydrated though a series of graded alcohol steps starting with 100% EtOH and ending in 50% EtOH. Slides remained in toluidine blue for 2 minutes and were then dehydrated through graded alcohol washes and covered with Cytoseal (Richard Allan Scientific).
# [8] = test system: post-surgical lymphedema in the tails of SKH-1 mice; assay: Tail volume quantitation, VEGF-C in experimental lymphedema (Example 3); type: in vivo, mouse; conditions: single subcutaneous dose of 200 ng on post-surgical day 3
# Description: Post-surgical lymphedema was experimentally created in the tails of female hairless, immunocompetent SKH-1 mice (Charles River Laboratories, Boston Mass.) as described in example 1, above. Therapeutic VEGF-C lymphangiogenesis in experimental lymphedema. On post-surgical day 3, the treated animal subjects received parenteral recombinant human VEGF-C (R&D Systems Inc., Minneapolis, Minn.). Each animal received a single subcutaneous dose of 200 ng of the growth factor (2 mg/mL), equally divided between the proximal and distal wound edges. Untreated lymphedema subjects received subcutaneous saline analogously administered.
# Tail volume was serially quantitated in 19 mice divided into four treatment categories: normal, untreated lymphedema, VEGF-C-treated lymphedema, and surgical sham controls. For animals who had surgical intervention, this was defined to have occurred on day 0. All of the mice had quantitation of baseline tail volume; thereafter, volume was quantitated at defined time points: days 2, 4, 7, 9, 11, 14, 16, 18, 21, 23 28, 35, 42, 50, 57, 63, 65, 67 and 71. […] A single digital image of each tail was recorded with an OLYMPUS D520 Zoom digital camera at 1600×1200SHQ resolution. […] The diameter of the tail was digitally, serially quantitated at distances of 8 mm beginning at the proximal end of the tail. […]
# [9] = test system: LYVE-1-positive lymphatic vessels; assay: LYVE-1 immunohistochemical staining, lymphatic vessel number and area; type: in vivo, mouse
# Description: 5 μm-thick paraffin sections were de-paraffinized in xylene, re-hydrated in a graded series of ethanol, pretreated with target retrieval solution (Dako, Carpinteria, Calif.) in a pressure cooker, and incubated in a peroxidase block for 10 minutes. Sections were then incubated with rabbit polyclonal anti-LYVE-1 antibody (1:200, Upstate Cell Signaling Solutions, Lake Placid, N.Y.) for 1 hour at room temperature, followed by horseradish peroxidase (HRP)-conjugated secondary antibody for 30 minutes at room temperature and detection with DAB for 4 minutes (Envision System Kit, Dako). Tissue sections were counterstained with Gill 1 Hematoxylin (Richard-Allan Scientific, Kalamazoo, Mich.). for 15 seconds, then dehydrated in graded ethanol and coverslipped with CoverSafe (American Master*Tech, Lodi, Calif.).
# 5 μm-thick paraffin sections were prepared and stained for LYVE-1 as described in example 1, above.
# Mean lymphatic vessel number was determined by averaging the number of total lymphatic vessels in all of the fields of each slide at 10× magnification. The observer was blinded to the treatment status of the animal in each case. Lymphedema was characterized by an increase in LYVE-1-positive vessel number/field that was not observed in normals or after VEGF-C-treatment: lymphedema, 7.3±4.0 (P=0.02 compared to normal); VEGF-C, 1.3±0.9 (N.S.); and normal, 1.0±0.8.
# Lymphatic vessel area was quantitated according to the formula π·r1·r2. […] Both vessel number and size returned substantially to normal following exogenous administration of recombinant VEGF-C.
# [10] = test system: clearance of luc+ splenocytes from lymphedematous tails of FVB/N mice; assay: Functional in vivo bioluminescence imaging of immune traffic, VEGF-C study; parameters: species or system mouse
# Description: Experimental lymphedema was created surgically in the tails of 20 FVB/N female wild type mice (Jackson Laboratories, […]), using the technique described above, and functionally compared with normal mice (n=8). The lymphedematous mice were treated with human recombinant VEGF-C or with saline, as described above, on post-surgical day 3. For in vivo bioluminescence imaging, spleens from transgenic luc+ heterozygous animals, expressing firefly luciferase under the control of a chicken beta-actin promoter, as previously described (Beilhack et al., 2005; Cao et al., 2004), were placed into single cell suspension. These single cell suspensions consisted of different hematopoietic lineages: ˜40% were CD19+ B cells, ˜20% CD4+ T cells, ˜10-15% were CD8+ T cells, 3% NK1.1+ NK cells and the rest were GR.1+ granulocytes, Mac-1+ macrophages, CD11c+ dendritic cells and rarer cell populations. 4×10^6 splenocytes (>97% CD45+) in PBS were injected in a volume of […] into the tail interstitium/emission]×100%. 1 cm caudal to the site of surgery, in lymphedema mice and normal controls, respectively. […] The efficiency of cellular lymphatic drainage was determined by direct imaging of light emission, with quantitation of the relative change in light emission from that measured at 20 hours after cell injection, as follows: relative photon emission=[emissionday 7/emission20 hours]×100%.
molecule,measurement,setting,value
CCOC(=O)C(C)c1cccc(C(=O)c2ccccc2)c1 (centres unmarked) [ketoprofen ethyl ester],Log Kow,[1],4.14
CC(C)OC(=O)C(C)c1cccc(C(=O)c2ccccc2)c1 (centres unmarked) [ketoprofen isopropyl ester],Log Kow,[1],4.56
COC(=O)C(C)c1cccc(C(=O)c2ccccc2)c1 (centres unmarked) [ketoprofen methyl ester],ability to permeate the stratum corneum of human cadaver skin,[2],most penetration
same,Log Kow,[1],3.65
pegsunercept [sTNF-R1],epidermal thickness (ET) compared to untreated LY mice,[3]; FIG. 14B,significantly increased
same,"epidermal thickness increased, compared to untreated mice with lymphedema",[3]; day 11,16.0±2.5%
same,histological changes in mice with lymphedema,"[3]; day 11, listed as sTNFR1",no discernible amelioration
same,histological changes in mice with lymphedema,"[3]; day 11, listed as sTNFR-1",exacerbates the pathology
same,"tail volume, % of baseline","[4]; day 7, lymphedema mice, s.c. every other day from day 3",183.7±26.8%
same,edematous response (tail volume) of lymphedema mice,"[4]; lymphedema mice, systemic s.c. treatment",significantly more edematous
same,effect on tail volume in normal and sham surgery mice,[4]; normal and sham surgery mice,no discernable effect
same,expression of other targeted genes (other than TNF-α),[5]; day 11,did not affect other genes
same,TNF-α expression (mRNA),"[5]; day 11, lymphedema mice",reduced TNF-α expression to control levels; also recorded: downregulated
same,VEGF-C expression (mRNA),[5]; lymphedema mice,decreased
same,VEGFR-3 expression,[5]; lymphedema mice,decreased
same,MCP-1 tissue levels (protein),[6]; postoperative day 7,further increased
same,MCP-3 tissue levels (protein),[6]; postoperative day 7,significantly reduced
same,eotaxin tissue levels,[6]; postoperative day 7,decreased
same,MCP-3 tissue levels (protein),"[6]; postoperative day 7, listed as sTNFR-1",inhibited
"VEGF-C: parenteral recombinant human VEGF-C (R&D Systems Inc.), growth factor (protein, UniProt P49767 112-227, looked up) Vascular endothelial growth …: AHYNTEILKSIDNEWRKTQCMPREVCIDVGKEFGVATNTFFKPPCVSVYRCGGCCNSEGLQCMNTSTSYLSKTLFEITVPLSQGPKPVTISFANHTSCRCMSKLDVYRQVHSIIRR",histological pattern of tail tissue,[7],substantial reversion to the normal pattern
same,mean tail volume compared with untreated lymphedema,[8],"significant decrease in volume; also recorded: diminution in the mean tail volume; also recorded: volume reduction, compared with untreated lymphedema, was evident by day 7"
same,LYVE-1-positive vessel number/field,"[9]; 10x magnification, day 11",1.3±0.9
same,average lymphatic area/field (LYVE-1-positive vessel area),"[9]; formula π·r1·r2, n=3",2992±1311 μm^2
same,size and number of LYVE-1-positive skin lymphatics,[9]; vs untreated lymphedema,reduction in the observed size and number of these skin lymphatics; also recorded: reduction in the number and size of LYVE-1-positive vessels
same,clearance of bioluminescent immunocytes (immune traffic),[10]; day 7 post-injection,ameliorated
same,"relative photon density, % of the observed value 20 hours post-injection","[10]; day 7 post-injection (post-operative day 14), n=12",24±9%
